# Experimental data: ChEMBL document CHEMBL3272273, “Synthesis and pharmacological activity and some derivatives of 1-phenyl-1,2,3,4-tetrahydro-5H-1,4-benzodiazepin-5-one” (J Med Chem, 1978)
# Tested on: Mus musculus
# Experiment: Toxicity in ip dosed mouse assessed as sedative action
# Format: organism-based
# Conditions: in vivo
row,SMILES,Activity
1,CCN(CC)CCN1CCN(c2ccccc2)c2ccccc2C1=O,Non-toxic
2,C[N+](C)(C)CCN1CCN(c2ccccc2)c2ccccc2C1=O.[I-],Non-toxic
3,C[N+](C)(C)CCCN1CCN(c2ccccc2)c2ccccc2C1=O.[I-],Non-toxic
4,CC(C[N+](C)(C)C)N1CCN(c2ccccc2)c2ccccc2C1=O.[I-] (stereo not given),Non-toxic
5,CC[N+](C)(CC)CCN1CCN(c2ccccc2)c2ccccc2C1=O.[I-],Non-toxic
6,C[N+]1(CCN2CCN(c3ccccc3)c3ccccc3C2=O)CCCC1.[I-],Non-toxic
7,C[N+]1(CCN2CCN(c3ccccc3)c3ccccc3C2=O)CCCCC1.[I-],Non-toxic
8,CNC1=Nc2ccc(Cl)cc2C(c2ccccc2)=[N+]([O-])C1 [CHLORDIAZEPOXIDE],Non-toxic
9,CN1C(=O)CN=C(c2ccccc2)c2cc(Cl)ccc21 [DIAZEPAM],Non-toxic

# Tested on: Mus musculus
# Experiment: Toxicity in ip dosed albino mouse assessed as barbiturate-induced sleep by measuring loss of righting reflex administered 45 mins before barbiturate challenge relative to control
# Format: organism-based
# Conditions: in vivo, 0.75 h
row,SMILES,Activity [%]
1,CCN(CC)CCN1CCN(c2ccccc2)c2ccccc2C1=O,10
2,C[N+](C)(C)CCN1CCN(c2ccccc2)c2ccccc2C1=O.[I-],15
3,C[N+](C)(C)CCCN1CCN(c2ccccc2)c2ccccc2C1=O.[I-],10
4,CC(C[N+](C)(C)C)N1CCN(c2ccccc2)c2ccccc2C1=O.[I-] (stereo not given),5
5,CC[N+](C)(CC)CCN1CCN(c2ccccc2)c2ccccc2C1=O.[I-],5
6,C[N+]1(CCN2CCN(c3ccccc3)c3ccccc3C2=O)CCCC1.[I-],5
7,C[N+]1(CCN2CCN(c3ccccc3)c3ccccc3C2=O)CCCCC1.[I-],3

# Tested on: Mus musculus
# Experiment: Neurotoxicity in albino mouse at 5 mg/kg, po up to 5 mins by rotorod test relative to control
# Format: toxicity, organism-based
# Design: dose 5 mg/kg, route oral
# Conditions: in vivo
row,SMILES,Activity [%]
1,C[N+](C)(C)CCN1CCN(c2ccccc2)c2ccccc2C1=O.[I-],-21
2,C[N+](C)(C)CCCN1CCN(c2ccccc2)c2ccccc2C1=O.[I-],70
3,CC(C[N+](C)(C)C)N1CCN(c2ccccc2)c2ccccc2C1=O.[I-] (stereo not given),-7
4,CC[N+](C)(CC)CCN1CCN(c2ccccc2)c2ccccc2C1=O.[I-],20

# Tested on: Mus musculus
# Experiment: Toxicity in albino mouse assessed as translatory movements at 5 mg/kg, ip relative to control
# Format: organism-based
# Design: dose 5 mg/kg, route intraperitoneal
# Conditions: in vivo
row,SMILES,Activity [%]
1,C[N+](C)(C)CCN1CCN(c2ccccc2)c2ccccc2C1=O.[I-],20
2,C[N+](C)(C)CCCN1CCN(c2ccccc2)c2ccccc2C1=O.[I-],-5
3,CC(C[N+](C)(C)C)N1CCN(c2ccccc2)c2ccccc2C1=O.[I-] (stereo not given),1
4,CC[N+](C)(CC)CCN1CCN(c2ccccc2)c2ccccc2C1=O.[I-],-3
5,C[N+]1(CCN2CCN(c3ccccc3)c3ccccc3C2=O)CCCC1.[I-],-8
6,C[N+]1(CCN2CCN(c3ccccc3)c3ccccc3C2=O)CCCCC1.[I-],-20

# Tested on: Mus musculus
# Experiment: Toxicity in albino mouse assessed as body-temperature variation at 5 mg/kg, ip measured 20 mins after dl-amphetamine sulfate injection dosed 30 mins before dl-amphetamine sulfate injection
# Format: organism-based
# Design: dose 5 mg/kg, route intraperitoneal
# Conditions: in vivo
row,SMILES,temperature change [°C]
1,C[N+](C)(C)CCN1CCN(c2ccccc2)c2ccccc2C1=O.[I-],-0.3
2,C[N+](C)(C)CCCN1CCN(c2ccccc2)c2ccccc2C1=O.[I-],1.2
3,CC(C[N+](C)(C)C)N1CCN(c2ccccc2)c2ccccc2C1=O.[I-] (stereo not given),0.3
4,CC[N+](C)(CC)CCN1CCN(c2ccccc2)c2ccccc2C1=O.[I-],1.4
5,C[N+]1(CCN2CCN(c3ccccc3)c3ccccc3C2=O)CCCC1.[I-],1.6
6,C[N+]1(CCN2CCN(c3ccccc3)c3ccccc3C2=O)CCCCC1.[I-],0.9

# Tested on: Mus musculus
# Experiment: Neurotoxicity in albino mouse at 10 mg/kg, po up to 5 mins by rotorod test relative to control
# Format: toxicity, organism-based
# Design: dose 10 mg/kg, route oral
# Conditions: in vivo
row,SMILES,Activity [%]
1,CCN(CC)CCN1CCN(c2ccccc2)c2ccccc2C1=O,11
2,C[N+]1(CCN2CCN(c3ccccc3)c3ccccc3C2=O)CCCC1.[I-],11
3,C[N+]1(CCN2CCN(c3ccccc3)c3ccccc3C2=O)CCCCC1.[I-],8
4,CNC1=Nc2ccc(Cl)cc2C(c2ccccc2)=[N+]([O-])C1 [CHLORDIAZEPOXIDE],-50
5,CN1C(=O)CN=C(c2ccccc2)c2cc(Cl)ccc21 [DIAZEPAM],-40

# Tested on: Mus musculus
# Experiment: Anticonvulsant activity in ip dosed albino mouse assessed as dose causing >25% increase in maximal electroshock-induced maximal extensor seizure relative to untreated control
# Format: functional
# Conditions: not given
row,SMILES,Activity [mg/kg]
1,CCN(CC)CCN1CCN(c2ccccc2)c2ccccc2C1=O,5
2,C[N+](C)(C)CCN1CCN(c2ccccc2)c2ccccc2C1=O.[I-],15
3,C[N+](C)(C)CCCN1CCN(c2ccccc2)c2ccccc2C1=O.[I-],10
4,CC(C[N+](C)(C)C)N1CCN(c2ccccc2)c2ccccc2C1=O.[I-] (stereo not given),5
5,CC[N+](C)(CC)CCN1CCN(c2ccccc2)c2ccccc2C1=O.[I-],5
6,C[N+]1(CCN2CCN(c3ccccc3)c3ccccc3C2=O)CCCC1.[I-],3

# Tested on: Ileum
# Experiment: Antiacetylcholine activity in guinea pig ileum assessed as dose required to decrease 50 to 100% of acetylcholine-induced effect treated 5 mins before acetylcholine addition
# Format: functional, Cavia porcellus
# Conditions: not given
row,SMILES,Activity [µg/mL]
1,CCN(CC)CCN1CCN(c2ccccc2)c2ccccc2C1=O,100
2,C[N+](C)(C)CCN1CCN(c2ccccc2)c2ccccc2C1=O.[I-],50
3,C[N+](C)(C)CCCN1CCN(c2ccccc2)c2ccccc2C1=O.[I-],50
4,CC(C[N+](C)(C)C)N1CCN(c2ccccc2)c2ccccc2C1=O.[I-] (stereo not given),200
5,CC[N+](C)(CC)CCN1CCN(c2ccccc2)c2ccccc2C1=O.[I-],50
6,C[N+]1(CCN2CCN(c3ccccc3)c3ccccc3C2=O)CCCC1.[I-],100
7,C[N+]1(CCN2CCN(c3ccccc3)c3ccccc3C2=O)CCCCC1.[I-],50
8,CNC1=Nc2ccc(Cl)cc2C(c2ccccc2)=[N+]([O-])C1 [CHLORDIAZEPOXIDE],3

# Tested on: Ileum
# Experiment: Antihistamine activity in guinea pig ileum assessed as dose required to decrease 50 to 100% of histamine induced effect treated 5 mins before histamine addition
# Format: functional, Cavia porcellus
# Conditions: not given
row,SMILES,Activity [µg/mL]
1,CCN(CC)CCN1CCN(c2ccccc2)c2ccccc2C1=O,100
2,C[N+](C)(C)CCN1CCN(c2ccccc2)c2ccccc2C1=O.[I-],50
3,C[N+](C)(C)CCCN1CCN(c2ccccc2)c2ccccc2C1=O.[I-],50
4,CC(C[N+](C)(C)C)N1CCN(c2ccccc2)c2ccccc2C1=O.[I-] (stereo not given),50
5,CC[N+](C)(CC)CCN1CCN(c2ccccc2)c2ccccc2C1=O.[I-],50
6,C[N+]1(CCN2CCN(c3ccccc3)c3ccccc3C2=O)CCCC1.[I-],50
7,C[N+]1(CCN2CCN(c3ccccc3)c3ccccc3C2=O)CCCCC1.[I-],200
8,CNC1=Nc2ccc(Cl)cc2C(c2ccccc2)=[N+]([O-])C1 [CHLORDIAZEPOXIDE],3
9,CN1C(=O)CN=C(c2ccccc2)c2cc(Cl)ccc21 [DIAZEPAM],4

# Tested on: Mus musculus
# Experiment: Toxicity in ip dosed albino mouse assessed as barbiturate-induced sleep by measuring loss of righting reflex relative to control
# Format: organism-based
# Conditions: in vivo
row,SMILES,Activity [%]
1,CCN(CC)CCN1CCN(c2ccccc2)c2ccccc2C1=O,40
2,C[N+](C)(C)CCN1CCN(c2ccccc2)c2ccccc2C1=O.[I-],-40
3,C[N+](C)(C)CCCN1CCN(c2ccccc2)c2ccccc2C1=O.[I-],-25
4,CC(C[N+](C)(C)C)N1CCN(c2ccccc2)c2ccccc2C1=O.[I-] (stereo not given),-15
5,CC[N+](C)(CC)CCN1CCN(c2ccccc2)c2ccccc2C1=O.[I-],-40
6,C[N+]1(CCN2CCN(c3ccccc3)c3ccccc3C2=O)CCCC1.[I-],30
7,C[N+]1(CCN2CCN(c3ccccc3)c3ccccc3C2=O)CCCCC1.[I-],20

# Tested on: Mus musculus
# Experiment: Anticonvulsant activity in ip dosed albino mouse assessed as dose causing total prevention of maximal electroshock-induced maximal extensor seizure
# Format: functional
# Conditions: not given
row,SMILES,Activity [mg/kg]
1,CNC1=Nc2ccc(Cl)cc2C(c2ccccc2)=[N+]([O-])C1 [CHLORDIAZEPOXIDE],90
2,CN1C(=O)CN=C(c2ccccc2)c2cc(Cl)ccc21 [DIAZEPAM],50

# Tested on: Mus musculus
# Experiment: Toxicity in ip dosed albino mouse assessed as dose required to increase 25% of dl-amphetamine sulfate-induced death
# Format: organism-based
# Conditions: in vivo
row,SMILES,Activity [mg/kg]
1,C[N+](C)(C)CCN1CCN(c2ccccc2)c2ccccc2C1=O.[I-],5
2,C[N+](C)(C)CCCN1CCN(c2ccccc2)c2ccccc2C1=O.[I-],5
3,CC[N+](C)(CC)CCN1CCN(c2ccccc2)c2ccccc2C1=O.[I-],3
4,C[N+]1(CCN2CCN(c3ccccc3)c3ccccc3C2=O)CCCC1.[I-],3

# Tested on: not listed separately
# Experiment: Antitrypatamine activity in isolated Wistar rat caudal artery assessed as dose required to decrease 20 to 50% of […]-induced effect per 6 mL/min after 15 mins
# Format: functional
# Conditions: not given
row,SMILES,Activity [µg/min]
1,CCN(CC)CCN1CCN(c2ccccc2)c2ccccc2C1=O,50
2,C[N+](C)(C)CCN1CCN(c2ccccc2)c2ccccc2C1=O.[I-],50
3,C[N+](C)(C)CCCN1CCN(c2ccccc2)c2ccccc2C1=O.[I-],50
4,CC(C[N+](C)(C)C)N1CCN(c2ccccc2)c2ccccc2C1=O.[I-] (stereo not given),15
5,CC[N+](C)(CC)CCN1CCN(c2ccccc2)c2ccccc2C1=O.[I-],15
6,C[N+]1(CCN2CCN(c3ccccc3)c3ccccc3C2=O)CCCC1.[I-],50
7,C[N+]1(CCN2CCN(c3ccccc3)c3ccccc3C2=O)CCCCC1.[I-],50
8,CNC1=Nc2ccc(Cl)cc2C(c2ccccc2)=[N+]([O-])C1 [CHLORDIAZEPOXIDE],20

# Tested on: not listed separately
# Experiment: Acute toxicity in ip dosed albino mouse measured within 24 hrs
# Format: organism-based
# Conditions: in vivo
row,SMILES,LD50 at 24 h [mg/kg]
1,CCN(CC)CCN1CCN(c2ccccc2)c2ccccc2C1=O,75
2,C[N+](C)(C)CCN1CCN(c2ccccc2)c2ccccc2C1=O.[I-],35
3,C[N+](C)(C)CCCN1CCN(c2ccccc2)c2ccccc2C1=O.[I-],50
4,CC(C[N+](C)(C)C)N1CCN(c2ccccc2)c2ccccc2C1=O.[I-] (stereo not given),15
5,CC[N+](C)(CC)CCN1CCN(c2ccccc2)c2ccccc2C1=O.[I-],15
6,C[N+]1(CCN2CCN(c3ccccc3)c3ccccc3C2=O)CCCC1.[I-],10
7,C[N+]1(CCN2CCN(c3ccccc3)c3ccccc3C2=O)CCCCC1.[I-],15
8,CNC1=Nc2ccc(Cl)cc2C(c2ccccc2)=[N+]([O-])C1 [CHLORDIAZEPOXIDE],780

# Tested on: not listed separately
# Experiment: Antinoradrenaline activity in isolated Wistar rat caudal artery assessed as dose required to decrease 20 to 50% of noradrenaline-induced effect per 6 mL/min after 15 mins
# Format: functional
# Conditions: not given
row,SMILES,Activity [µg/min]
1,CCN(CC)CCN1CCN(c2ccccc2)c2ccccc2C1=O,80
2,C[N+](C)(C)CCN1CCN(c2ccccc2)c2ccccc2C1=O.[I-],50
3,C[N+](C)(C)CCCN1CCN(c2ccccc2)c2ccccc2C1=O.[I-],100
4,CC(C[N+](C)(C)C)N1CCN(c2ccccc2)c2ccccc2C1=O.[I-] (stereo not given),50
5,CC[N+](C)(CC)CCN1CCN(c2ccccc2)c2ccccc2C1=O.[I-],50
6,C[N+]1(CCN2CCN(c3ccccc3)c3ccccc3C2=O)CCCC1.[I-],5
7,C[N+]1(CCN2CCN(c3ccccc3)c3ccccc3C2=O)CCCCC1.[I-],25
8,CNC1=Nc2ccc(Cl)cc2C(c2ccccc2)=[N+]([O-])C1 [CHLORDIAZEPOXIDE],18

# Tested on: Mus musculus
# Experiment: Toxicity in albino mouse assessed as translatory movements at 10 mg/kg, ip relative to control
# Format: organism-based
# Design: dose 10 mg/kg, route intraperitoneal
# Conditions: in vivo
row,SMILES,Activity [%]
1,CCN(CC)CCN1CCN(c2ccccc2)c2ccccc2C1=O,1
2,CNC1=Nc2ccc(Cl)cc2C(c2ccccc2)=[N+]([O-])C1 [CHLORDIAZEPOXIDE],-40
3,CN1C(=O)CN=C(c2ccccc2)c2cc(Cl)ccc21 [DIAZEPAM],-50
